The target in test [1] is T1, Angiotensin-converting enzyme (Rattus norvegicus, UniProt P47820).
T1 sequence (P47820 whole entry): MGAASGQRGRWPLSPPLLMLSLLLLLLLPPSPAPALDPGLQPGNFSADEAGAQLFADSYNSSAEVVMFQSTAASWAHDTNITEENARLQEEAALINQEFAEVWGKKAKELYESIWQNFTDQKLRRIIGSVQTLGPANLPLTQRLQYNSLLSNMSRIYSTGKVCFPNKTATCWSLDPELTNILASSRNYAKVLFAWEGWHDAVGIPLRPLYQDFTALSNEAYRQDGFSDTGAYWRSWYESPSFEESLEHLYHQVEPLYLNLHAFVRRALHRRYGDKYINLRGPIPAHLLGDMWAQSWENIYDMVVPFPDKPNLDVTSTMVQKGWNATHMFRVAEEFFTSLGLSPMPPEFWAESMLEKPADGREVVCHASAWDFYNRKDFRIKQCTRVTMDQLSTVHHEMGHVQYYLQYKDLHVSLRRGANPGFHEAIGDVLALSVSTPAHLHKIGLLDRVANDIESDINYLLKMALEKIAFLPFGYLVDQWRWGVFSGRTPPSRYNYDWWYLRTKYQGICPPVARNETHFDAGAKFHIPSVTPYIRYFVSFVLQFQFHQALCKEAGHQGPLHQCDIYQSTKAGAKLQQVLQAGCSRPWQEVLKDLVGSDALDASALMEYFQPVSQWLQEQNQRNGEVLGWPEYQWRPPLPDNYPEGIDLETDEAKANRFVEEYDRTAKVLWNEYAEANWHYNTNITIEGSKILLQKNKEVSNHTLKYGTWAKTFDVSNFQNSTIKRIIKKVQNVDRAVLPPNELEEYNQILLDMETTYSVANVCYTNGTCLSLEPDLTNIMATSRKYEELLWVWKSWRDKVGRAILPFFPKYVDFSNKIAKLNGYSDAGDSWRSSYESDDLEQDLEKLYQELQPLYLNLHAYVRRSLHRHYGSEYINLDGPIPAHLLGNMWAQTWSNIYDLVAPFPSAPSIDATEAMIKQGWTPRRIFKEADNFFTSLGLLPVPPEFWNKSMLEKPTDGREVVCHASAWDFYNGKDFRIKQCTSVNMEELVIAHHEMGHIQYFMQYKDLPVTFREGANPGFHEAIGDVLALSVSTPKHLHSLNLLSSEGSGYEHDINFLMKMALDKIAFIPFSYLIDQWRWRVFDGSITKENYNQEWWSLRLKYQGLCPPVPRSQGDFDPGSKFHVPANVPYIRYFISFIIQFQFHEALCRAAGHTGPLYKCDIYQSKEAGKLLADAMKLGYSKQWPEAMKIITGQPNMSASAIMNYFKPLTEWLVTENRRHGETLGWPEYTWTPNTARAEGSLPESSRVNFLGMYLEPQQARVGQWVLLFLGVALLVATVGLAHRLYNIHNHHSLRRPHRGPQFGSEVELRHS
As to the kind of experiment: Binding affinity against Angiotensin I converting enzyme from rat testis.

The next test has as its target T2, Neprilysin (Oryctolagus cuniculus, UniProt P08049).
T2 sequence (P08049 whole entry): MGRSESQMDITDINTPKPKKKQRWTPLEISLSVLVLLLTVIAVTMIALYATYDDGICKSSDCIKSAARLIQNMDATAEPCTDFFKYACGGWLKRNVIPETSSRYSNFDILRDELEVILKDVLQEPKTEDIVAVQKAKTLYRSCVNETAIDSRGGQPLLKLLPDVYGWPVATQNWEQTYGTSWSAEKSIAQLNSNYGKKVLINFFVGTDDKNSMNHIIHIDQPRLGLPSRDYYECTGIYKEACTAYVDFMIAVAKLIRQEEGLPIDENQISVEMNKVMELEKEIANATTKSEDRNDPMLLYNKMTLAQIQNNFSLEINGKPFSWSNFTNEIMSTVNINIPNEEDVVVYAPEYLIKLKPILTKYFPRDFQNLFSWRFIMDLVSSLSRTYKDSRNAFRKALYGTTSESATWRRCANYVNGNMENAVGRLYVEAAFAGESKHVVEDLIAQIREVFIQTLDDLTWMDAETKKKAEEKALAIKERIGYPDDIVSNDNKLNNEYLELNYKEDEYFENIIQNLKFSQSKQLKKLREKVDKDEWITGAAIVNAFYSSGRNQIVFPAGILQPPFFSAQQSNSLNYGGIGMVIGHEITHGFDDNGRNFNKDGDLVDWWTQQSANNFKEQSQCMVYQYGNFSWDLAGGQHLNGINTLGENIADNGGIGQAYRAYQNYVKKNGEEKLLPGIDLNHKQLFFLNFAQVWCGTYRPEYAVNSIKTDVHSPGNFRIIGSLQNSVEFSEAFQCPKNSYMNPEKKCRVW
Briefly: Binding affinity against NEP from rabbit kidney(neutral endopeptidase).

The target in another test is Glutamyl aminopeptidase (Homo sapiens, UniProt Q07075). As to the kind of experiment: Binding affinity against recombinant Aminopeptidase A.
Sequence of Glutamyl aminopeptidase (Q07075 whole entry): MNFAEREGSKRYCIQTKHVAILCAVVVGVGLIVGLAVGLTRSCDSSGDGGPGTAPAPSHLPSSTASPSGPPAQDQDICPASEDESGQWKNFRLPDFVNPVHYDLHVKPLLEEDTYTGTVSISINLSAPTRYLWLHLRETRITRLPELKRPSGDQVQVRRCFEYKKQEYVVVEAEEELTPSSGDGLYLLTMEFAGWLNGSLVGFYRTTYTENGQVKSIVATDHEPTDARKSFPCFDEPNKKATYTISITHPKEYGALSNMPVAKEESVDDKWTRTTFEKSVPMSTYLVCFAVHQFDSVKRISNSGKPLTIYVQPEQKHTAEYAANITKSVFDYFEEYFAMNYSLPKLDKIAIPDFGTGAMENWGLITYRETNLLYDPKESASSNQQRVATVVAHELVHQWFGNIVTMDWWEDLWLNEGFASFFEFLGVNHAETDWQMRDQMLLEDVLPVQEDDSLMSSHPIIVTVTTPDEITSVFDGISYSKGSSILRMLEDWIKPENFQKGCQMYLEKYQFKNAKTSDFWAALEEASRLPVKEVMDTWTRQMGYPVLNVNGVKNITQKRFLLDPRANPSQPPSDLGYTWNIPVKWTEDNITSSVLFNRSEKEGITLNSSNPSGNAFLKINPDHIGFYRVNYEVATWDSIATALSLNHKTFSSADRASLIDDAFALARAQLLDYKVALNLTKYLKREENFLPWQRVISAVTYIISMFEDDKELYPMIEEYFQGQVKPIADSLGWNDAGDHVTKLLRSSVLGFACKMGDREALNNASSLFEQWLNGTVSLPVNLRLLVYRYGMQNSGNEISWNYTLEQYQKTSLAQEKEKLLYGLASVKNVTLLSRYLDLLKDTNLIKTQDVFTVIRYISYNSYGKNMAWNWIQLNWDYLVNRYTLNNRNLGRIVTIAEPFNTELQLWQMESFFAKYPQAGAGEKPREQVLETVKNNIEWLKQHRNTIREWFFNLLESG
The target of another test is T3, Aminopeptidase N (Sus scrofa, UniProt P15145).
T3 sequence (P15145 whole entry): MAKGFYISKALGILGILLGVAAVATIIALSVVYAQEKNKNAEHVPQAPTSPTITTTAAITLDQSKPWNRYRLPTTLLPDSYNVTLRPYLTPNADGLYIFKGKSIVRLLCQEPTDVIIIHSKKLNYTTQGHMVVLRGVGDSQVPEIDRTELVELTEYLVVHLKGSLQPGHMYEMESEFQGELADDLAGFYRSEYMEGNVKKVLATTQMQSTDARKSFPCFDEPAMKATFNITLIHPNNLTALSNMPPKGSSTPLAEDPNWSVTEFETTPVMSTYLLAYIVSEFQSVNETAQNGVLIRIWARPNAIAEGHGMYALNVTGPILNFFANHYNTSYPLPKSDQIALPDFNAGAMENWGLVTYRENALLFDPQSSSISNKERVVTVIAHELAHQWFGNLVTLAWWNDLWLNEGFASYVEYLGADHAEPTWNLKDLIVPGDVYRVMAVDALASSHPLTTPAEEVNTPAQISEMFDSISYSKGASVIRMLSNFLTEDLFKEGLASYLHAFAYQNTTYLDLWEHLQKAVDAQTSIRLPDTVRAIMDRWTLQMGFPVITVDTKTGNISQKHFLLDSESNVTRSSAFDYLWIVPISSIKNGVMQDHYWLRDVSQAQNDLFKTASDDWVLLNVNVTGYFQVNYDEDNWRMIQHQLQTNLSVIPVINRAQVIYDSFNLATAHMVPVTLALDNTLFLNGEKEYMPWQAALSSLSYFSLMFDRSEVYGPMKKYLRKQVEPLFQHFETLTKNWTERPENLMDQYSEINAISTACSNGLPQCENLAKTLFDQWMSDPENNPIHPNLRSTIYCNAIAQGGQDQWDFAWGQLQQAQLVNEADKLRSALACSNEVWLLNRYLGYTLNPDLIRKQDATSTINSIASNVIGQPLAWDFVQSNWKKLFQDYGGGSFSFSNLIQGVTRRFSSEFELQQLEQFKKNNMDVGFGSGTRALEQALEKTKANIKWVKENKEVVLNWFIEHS

In ChEMBL document CHEMBL1132539 (J Med Chem, 1999) one finds Ki data, which are given here for eight compounds.

Structures are written as SMILES. pKi: −log10 of the molar value. Where only a bound is given, the exact number is not on record here.

Description for Aminopeptidase N: Binding affinity against aminopeptidase N from pig kidney

Usually pKi stands for the Ki on a negative log10 scale, so that one unit is a factor of ten. Turning to `N[C@H](CCS(=O)(=O)O)[C@@H](S)C(=O)N[C@@H](Cc1ccc(O)cc1)C(=O)N[C@@H](CCS(=O)(=O)O)C(=O)O`, the negative-log Ki (pKi) in test [1] was 6.18; at Neprilysin it was 6.28; at Glutamyl aminopeptidase it was 8.03.

Turning to `CC[C@@H](C)[C@H](NC(=O)[C@H](S)[C@H](N)CCP(=O)(O)O)C(=O)N[C@@H](CC(=O)O)C(=O)O`, the negative logarithm of the Ki (pKi) was 5.66 in test [1], 8.27 at Neprilysin, under 5.00 on Aminopeptidase N and 7.92 on Glutamyl aminopeptidase.

Take `CC[C@@H](C)[C@H](NC(=O)[C@H](S)[C@H](N)CCC(=O)O)C(=O)N[C@@H](CC(=O)O)C(=O)O`: the pKi in test [1] was 5.74; at Neprilysin it was 8.40; at Aminopeptidase N, under 5.00; at Glutamyl aminopeptidase, 8.45.

For `CC[C@@H](C)[C@H](NC(=O)[C@H](S)[C@H](N)CCS(=O)(=O)O)C(=O)N1CCC(C(=O)O)[C@@H]1C(=O)O` (stereo partly drawn), the negative logarithm of the Ki (pKi) is 5.96 in test [1], 6.28 on Neprilysin and 8.42 at Glutamyl aminopeptidase.

As for `CC[C@@H](C)[C@H](NC(=O)[C@H](S)[C@H](N)CCS(=O)(=O)O)C(=O)N[C@@H](CC(=O)O)C(=O)O`, the pKi is 5.92 in test [1], 7.66 on Neprilysin, under 4.00 on Aminopeptidase N and 8.49 on Glutamyl aminopeptidase.

Regarding `CC[C@@H](C)[C@H](NC(=O)[C@H](S)[C@H](N)CCS(=O)(=O)O)C(=O)N1CCC(C(=O)O)[C@H]1C(=O)O` (stereo partly drawn), the pKi in test [1] was 6.59; at Neprilysin, 6.66; on Glutamyl aminopeptidase it was 9.06.

As to `CC[C@@H](C)[C@H](NC(=O)[C@H](S)[C@H](N)CCS(=O)(=O)O)C(=O)N[C@@H](CS(=O)(=O)O)C(=O)O`, the negative logarithm of the Ki (pKi) in test [1] is 5.92; on Neprilysin, 7.77; on Glutamyl aminopeptidase, 8.44.

With `N[C@H](CCS(=O)(=O)O)[C@@H](S)C(=O)N[C@@H](Cc1ccc(O)cc1)C(=O)N[C@@H](CC(=O)O)C(=O)O`, the negative logarithm of the Ki (pKi) is 5.74 in test [1], 7.47 at Neprilysin, 4.51 on Aminopeptidase N and 8.37 on Glutamyl aminopeptidase.
